Measurements taken from patent US11839609B1, “Substituted tetrahydroisoquinolines as anti-mitotic drug in triple negative breast cancer” (Florida A&M University, priority 2021, dated 2023).

Tests used:
[1] = system: Ishikawa endometrial cancer cell line; assay: Cytostatic effect, CellTiter-Glo luminescent cell viability assay; type: cell-based, human; conditions: Southern Research Institute, FIG. 4
Experimental: (§1) The anti-proliferative activity of GM-4-53 on two additional cell lines was evaluated at the Southern Research Institute (SRI, Birmingham, Alabama, USA). There, the human MCF-7 breast cancer cell line was purchased from the NCI. The human Ishikawa endometrial cancer cell line was purchased from Sigma Aldrich. Both cell lines were cultured in phenol red-free RPMI-1640 (Hyclone) (500 mL), supplemented with L-glutamine-dipeptide (Hyclone) (5 mL), and 10% fetal bovine serum (Atlanta Biologicals) (50 mL).
(§2) For MDA-MB-231 cells, both paclitaxel and GM-4-53 were dissolved in DMSO and […]. A stock solution for both compounds was prepped in HBSS. In brief, 96-well plates were seeded with cells (0.04×10^5/well) to a volume of 200 μL, to which drugs were added, and cell proliferation (as cell count) was evaluated at a 6-day endpoint, using Alamar blue. […] Samples were returned to the incubator for 4-6 h, and the reduction in the dye (to resorufin, a fluorescent compound) caused by viable cells was quantitatively analyzed using a Synergy HTX multi-mode reader (Bio-Tek, Winooski, VT, USA), with excitation/emission wavelength settings at 550 nm/580 nm. Cell count was evaluated as % control, and the inhibitory growth (IG50) value was calculated by regression analysis. […] Luminescence results were read on TriLux Luminometer. […]

[2] = system: MCF-7 breast cancer cell line; assay: as above; type: cell-based, human; conditions: MCF-7, Southern Research Institute, FIG. 4
Experimental: as §1, §2

MDA-MB-231 cells [3] = assay: 2D imaging of cytoskeletal morphology (phalloidin/propidium iodide); type: cell-based, human; conditions: day 6; GM-4-53 5 μg/mL, paclitaxel 1 μg/mL
Experimental: (§3) 2D cell cultures were imaged to ascertain changes in morphological structure at the 6-day endpoint in MDA-MB-231 cells in the presence or absence of treatments. In brief, cells were fixed in 4% paraformaldehyde and incubated at 37° C. in 5% CO2/atmosphere for 15 min. After delicate removal of paraformaldehyde, sterile ultra-pure biological grade water containing 0.2% Triton X-100 was gently added to each well (100 uL) and returned to the incubator for 45 min. After gentle removal, a PBS solution containing propidium iodide (1 μg/mL) and Phalloidin-iFluor 488 Reagent (ab176753) was added to each well, according to the manufacturer's instructions Abcam (Cambridge, MA, USA), and images were captured on an inverted fluorescent microscope using the 10× and 25× fluo-objectives. 3D tumors were stained with fluorescein diacetate (live-cell dye) and countered imaged for morphology.

MDA-MB-231 cells [4] = assay: Whole-transcriptome microarray (WT 2.1 Human), differentially expressed genes; type: cell-based; conditions: 36 h; for ID1, ID3 and ID4 transcripts: GM-4-53 more significant effects than paclitaxel; for DEGs shared by both drugs (overlap) / down-regulated DEGs vs. controls / upregulated DEGs vs. controls / differentially expressed genes (DEGs) of 48,226 genes analyzed: paclitaxel 1 μg/mL, GM-4-53 5 μg/mL; for differentially expressed genes (DEGs) of 48,226 genes analyzed: FC >2 or <−2, p and FDR p <0.05
Experimental: For MDA-MB-231 cells, both paclitaxel and GM-4-53 were dissolved in DMSO and […]. A stock solution for both compounds was prepped in HBSS. In brief, 96-well plates were seeded with cells (0.04×10^5/well) to a volume of 200 μL, to which drugs were added, and cell proliferation (as cell count) was evaluated at a 6-day endpoint, using Alamar blue. For Alamar blue testing, a working solution of resazurin prepared in sterile phosphate-buffered saline (PBS)-phenol red (0.5 mg/mL) was added (15% v/v) to each sample in a 96-well plate. Samples were returned to the incubator for 4-6 h, and the reduction in the dye (to resorufin, a fluorescent compound) caused by viable cells was quantitatively analyzed using a Synergy HTX multi-mode reader (Bio-Tek, Winooski, VT, USA), with excitation/emission wavelength settings at 550 nm/580 nm. Cell count was evaluated as % control, and the inhibitory growth (IG50) value was calculated by regression analysis. Cytotoxicity studies were carried out at equal dose concentrations as proliferation studies at a higher plating density (0.5×10^5/well), over 24-36 h. The cytostatic effects of MCF-7 and Ishikawa cell lines were determined using the CellTiter-Glo (CTG) luminescent cell viability assay, which is based on the direct determination of intracellular ATP level (determining the number of viable cells in culture based on the quantification of ATP present), which signals the presence of metabolically active cells. Luminescence results were read on TriLux Luminometer. Optimal concentrations for microarray were established by a lack of cell toxicity, at a concentration showing a complete blockage of cell proliferation; paclitaxel (1 μg/mL) and GM-4-53 (5 μg/mL). For microarray studies, cells were plated and treated in […] flasks for 36 h.
After the experimental 36-hour time point, the cells were scraped, washed three times in ice-cold HBSS, spun down, the supernatant removed, and the remaining pellet was rapidly frozen and stored at −80° C. Total RNA was isolated and purified using the Trizol/chloroform method. The RNA quality was assessed, and concentrations were equalized to 82 ng/μI in nuclease-free water. According to the GeneChip™ WT PLUS Reagent Manual for Whole Transcript (WT) expression arrays, whole transcriptome analysis was conducted. Briefly, RNA was reverse transcribed to first strand/second strand […]. The cRNA was purified and assessed for yield before the second cycle single-stranded cDNA synthesis, hydrolysis of RNA, and purification of the second cycle single-stranded cDNA. Subsequently, cDNA was assessed for yield, fragmented, labeled, and hybridized onto the arrays before being subjected to fluidics and imaging using the Gene Atlas (Affymetrix, ThermoFisher Scientific). The array data, quality control, and initial processing from CEL to CHP files were conducted using an expression console before data evaluation using the Affymetrix transcriptome analysis console (Wiki/Kegg pathways) and protein-protein interaction (PPI) String Database (String Consortium 2020)^1. The dataset has been deposited to NIH Gene Expression OmniBus.

[5] = system: triple negative breast cancer (TNBC); assay: Treatment of a TNBC patient (Example 1); type: in vivo, human; conditions: therapeutically effective amount
Experimental: A patient presents with a lump in their left breast. A biopsy of the mass is performed and the cells are found to lack estrogen or progesterone receptors and HER2 protein thus confirming a diagnosis of triple negative breast cancer (TNBC). The patient is administered a therapeutically effective amount of 4-Ethyl-N-(7-hydroxy-3,4-dihydroisoquinolin-2(1H)-yl) benzamide (GM-4-53) for a time period sufficient to inhibit cell proliferation. The patient is tested at regular intervals while the drug is being administered as well as after administration has stopped.

tubulin = assay: Tubulin polymerization/depolymerization; type: biochemical
MDA-MB-231 cells [6] = assay: Cell proliferation (cell count), 6-day endpoint, Alamar blue; type: cell-based, human; conditions: for concentration showing a complete blockage of cell proliferation with lack of cell toxicity: MDA-MB-231, chosen for microarray
Experimental: MDA-MB-231 cells (ATCC® HTB-26™) were used. These cells are human triple negative breast cancer cells, which we obtained from American Type Culture Collection (ATCC) (Manassas, VA, USA). MDA-MB-231 cells were initially brought up in ATCC-formulated Leibowitz's L-15 medium, supplemented with 10% fetal bovine serum (FBS) and penicillin/streptomycin (100 U/0.1 mg/ml). After confluence, the cells were sub-cultured and grown in Dulbecco's modified Eagle's medium (DMEM) containing phenol red, 7.5% FBS, 4 mM L-glutamine, 20 μM sodium pyruvate, and penicillin/streptomycin (100 U/0.1 mg/ml). Cells were maintained at 37° C. in 5% C02/atmosphere, and every 2-5 days, the medium was replaced and cells sub-cultured. The growth medium was used for all experiments conducted herein.
For MDA-MB-231 cells, both paclitaxel and GM-4-53 were dissolved in DMSO and […]. A stock solution for both compounds was prepped in HBSS. In brief, 96-well plates were seeded with cells (0.04×10^5/well) to a volume of 200 μL, to which drugs were added, and cell proliferation (as cell count) was evaluated at a 6-day endpoint, using Alamar blue. […] Samples were returned to the incubator for 4-6 h, and the reduction in the dye (to resorufin, a fluorescent compound) caused by viable cells was quantitatively analyzed using a Synergy HTX multi-mode reader (Bio-Tek, Winooski, VT, USA), with excitation/emission wavelength settings at 550 nm/580 nm. Cell count was evaluated as % control, and the inhibitory growth (IG50) value was calculated by regression analysis. […] The cytostatic effects of MCF-7 and Ishikawa cell lines were determined using the CellTiter-Glo (CTG) luminescent cell viability assay, which is based on the direct determination of intracellular ATP level (determining the number of viable cells in culture based on the quantification of ATP present), which signals the presence of metabolically active cells. Luminescence results were read on TriLux Luminometer. […]

Solubility = type: physicochemical
MDA-MB-231 cells [7] = assay: Cytotoxicity assay at high plating density, 24-36 h; type: cell-based, human; conditions: 36-hour toxicity assay, equal drug concentrations, 0.5×10^5 cells/well
Experimental: For MDA-MB-231 cells, both paclitaxel and GM-4-53 were dissolved in DMSO and […]. A stock solution for both compounds was prepped in HBSS. In brief, 96-well plates were seeded with cells (0.04×10^5/well) to a volume of 200 μL, to which drugs were added, and cell proliferation (as cell count) was evaluated at a 6-day endpoint, using Alamar blue. For Alamar blue testing, a working solution of resazurin prepared in sterile phosphate-buffered saline (PBS)-phenol red (0.5 mg/mL) was added (15% v/v) to each sample in a 96-well plate. Samples were returned to the incubator for 4-6 h, and the reduction in the dye (to resorufin, a fluorescent compound) caused by viable cells was quantitatively analyzed using a Synergy HTX multi-mode reader (Bio-Tek, Winooski, VT, USA), with excitation/emission wavelength settings at 550 nm/580 nm. Cell count was evaluated as % control, and the inhibitory growth (IG50) value was calculated by regression analysis. […] The cytostatic effects of MCF-7 and Ishikawa cell lines were determined using the CellTiter-Glo (CTG) luminescent cell viability assay, which is based on the direct determination of intracellular ATP level (determining the number of viable cells in culture based on the quantification of ATP present), which signals the presence of metabolically active cells. Luminescence results were read on TriLux Luminometer. […]

MDA-MB-231 cells [8] = assay: 3D tumor spheroid study; type: cell-based, human; conditions: GM-4-53 5 μg/mL, paclitaxel 1 μg/mL; drugs added day 14, images day 24
Experimental: MDA-MB-231 cells were plated in low-adhesion, round-bottom, sterile, 96-well plates at a cell density of (0.2×10^5/well), in 200 uL of cell culture media centrifuged at 1800×g for 3 min prior to incubation at 37° C. in 5% C02/atmosphere. For the first 3 days, cells were taken out and re-centrifuged at 1800×g×3 min. 3D spheroids were left to grow for 10 days. On day 14, experimental drugs were added, and images were captured on day 24.
as §3

Compound | morphological changes of actin cytoskeleton (MDA-MB-231 cells [3]) | amphiregulin (AREG) and epiregulin (EREG) mRNA (MDA-MB-231 cells [4]) | expression of COX2 (MDA-MB-231 cells [4]) | expression of ICAM-1 (MDA-MB-231 cells [4]) | ID1, ID3 and ID4 transcripts (MDA-MB-231 cells [4]) | DEGs shared by both drugs (overlap) (MDA-MB-231 cells [4]) | down-regulated DEGs vs. controls (MDA-MB-231 cells [4]) | upregulated DEGs vs. controls (MDA-MB-231 cells [4]) | differentially expressed genes (DEGs) of 48,226 genes analyzed (MDA-MB-231 cells [4]) | concentration showing a complete blockage of cell proliferation with lack of cell toxicity (MDA-MB-231 cells [6]) [µg/mL] | cytotoxic effects (MDA-MB-231 cells [7]) | effect on 3D tumor spheroid (MDA-MB-231 cells [8]) | further results
CCc1ccc(C(=O)NN2CCc3ccc(O)cc3C2)cc1 [GM-4-53, 4-Ethyl-N-(7-hydroxy-3,4-dihydroisoquinolin-2(1H)-yl)benzamide] | abnormally large-shaped extended actin networks | significantly downregulated | downregulated the expression | reduced the expression | pronounced downregulation | 52 | 168 | 75 | 243 | 5 | no cytotoxic effects | halts the growth and appears to penetrate the tumor core | IG50 (cytostatic growth-inhibitory effect) [1]: mid-to-high; IG50 (cytostatic growth-inhibitory effect) [2]: mid-to-high; oncogenic transcription factors (FOS, JUN-b, NFKB1a) driving oncostatin M (OSM) signaling (MDA-MB-231 cells [4]; vs untreated controls): general loss; KLRC3 transcript (MDA-MB-231 cells [4]; greater extent in GM-4-53): loss of the KLRC3 transcript; patient outcome [5]: deemed in remission; effect on tubulin nucleation (tubulin): only mild effects; effect on tubulin polymerization/depolymerization processes (tubulin): failed to show any effect; IC50 (MDA-MB-231 cells [6]; Homo sapiens, 144 h, MDA-MB-231, 6-day growth study, regression analysis, read-out: anti-proliferative IG50 growth inhibitory concentration): 261 nM; solubility (Solubility): excellent solubility
CC(=O)O[C@H]1C(=O)[C@@]2(C)[C@H]([C@H](OC(=O)c3ccccc3)[C@]3(O)C[C@H](OC(=O)[C@H](O)[C@@H](NC(=O)c4ccccc4)c4ccccc4)C(C)=C1C3(C)C)[C@]1(OC(C)=O)CO[C@@H]1C[C@@H]2O [paclitaxel, reference compound] | abnormally large-shaped extended actin networks | significantly downregulated | downregulated the expression | reduced the expression | pronounced downregulation | 52 | 45 | 108 | 153 | 1 | no cytotoxic effects | halt the growth of the spheroid and central core | 
